Measured values published in publication PMC4113806, “Characterization of ACE Inhibitory Peptides from Mactra veneriformis Hydrolysate by Nano-Liquid Chromatography Electrospray Ionization Mass Spectrometry (Nano-LC-ESI-MS) and Molecular Docking” (Marine Drugs, 2014).
Several values for one entry are separate records, joined by “and”; a condition that tells them apart may be missing. Equal values may be shown once. Residues, ends and D or L forms follow the SMILES beside them. No end group written: not given here.

Molecular target: T1, angiotensin I-converting enzyme (ACE) (Oryctolagus cuniculus, UniProt P12822)
T1 construct: purchased Sigma Chemical Co. (St. Louis, MO, USA)
T1 sequence (P12822 34-1310): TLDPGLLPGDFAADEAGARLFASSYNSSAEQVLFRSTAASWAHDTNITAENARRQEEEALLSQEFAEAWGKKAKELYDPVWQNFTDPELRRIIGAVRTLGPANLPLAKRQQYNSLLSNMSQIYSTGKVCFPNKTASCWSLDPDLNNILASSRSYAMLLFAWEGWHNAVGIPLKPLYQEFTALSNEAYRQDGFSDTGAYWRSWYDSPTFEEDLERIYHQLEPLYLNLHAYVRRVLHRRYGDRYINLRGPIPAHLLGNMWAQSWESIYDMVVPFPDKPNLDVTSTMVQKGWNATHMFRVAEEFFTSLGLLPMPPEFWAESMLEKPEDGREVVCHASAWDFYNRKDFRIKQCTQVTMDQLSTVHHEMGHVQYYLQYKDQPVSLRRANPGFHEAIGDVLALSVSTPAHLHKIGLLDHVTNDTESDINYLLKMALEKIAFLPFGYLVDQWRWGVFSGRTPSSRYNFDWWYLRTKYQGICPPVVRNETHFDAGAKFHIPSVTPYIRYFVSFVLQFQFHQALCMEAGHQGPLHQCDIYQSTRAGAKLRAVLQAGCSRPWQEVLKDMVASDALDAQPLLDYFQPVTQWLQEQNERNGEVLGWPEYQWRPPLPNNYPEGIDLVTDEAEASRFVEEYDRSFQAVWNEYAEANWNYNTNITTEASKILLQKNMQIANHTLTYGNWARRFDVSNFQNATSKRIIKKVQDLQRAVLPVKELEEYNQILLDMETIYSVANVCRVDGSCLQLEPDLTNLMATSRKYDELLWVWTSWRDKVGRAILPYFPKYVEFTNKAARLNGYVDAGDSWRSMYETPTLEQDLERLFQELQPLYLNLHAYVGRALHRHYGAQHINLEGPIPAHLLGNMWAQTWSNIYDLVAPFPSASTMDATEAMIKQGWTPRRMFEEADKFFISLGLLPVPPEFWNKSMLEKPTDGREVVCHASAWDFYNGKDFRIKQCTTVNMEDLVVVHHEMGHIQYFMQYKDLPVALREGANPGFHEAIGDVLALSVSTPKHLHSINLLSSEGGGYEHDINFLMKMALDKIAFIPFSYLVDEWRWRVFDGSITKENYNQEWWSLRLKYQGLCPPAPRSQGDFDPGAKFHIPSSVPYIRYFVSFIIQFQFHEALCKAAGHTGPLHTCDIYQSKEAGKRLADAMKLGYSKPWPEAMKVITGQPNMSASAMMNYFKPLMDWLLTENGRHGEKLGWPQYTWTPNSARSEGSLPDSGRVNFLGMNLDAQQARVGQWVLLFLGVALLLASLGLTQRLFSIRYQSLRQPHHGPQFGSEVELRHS
Assay: ACE inhibitory activity assay (HHL substrate, HPLC detection of hippuric acid)
Type: biochemical
Settings: chemically synthesized peptides
Procedure: ACE inhibitory activity was measured as previously described by Cushman and Cheung with minor modifications. A 10 μL sample solution (50 mM borate, pH 8.3) was added to 30 μL 2.5 mM HHL solution and incubated for 5 min at 37 °C. Subsequently, 20 μL of 0.1 U/mL ACE solution (50 mM borate, 0.3 M NaCl, pH 8.3) was added and the mixture was incubated at 37 °C for 60 min. The reaction was terminated by adding 70 μL of 1 M HCl. A blank sample of buffer alone was used as a negative control. Samples were filtered through a 0.45 μm nylon syringe filter and then separated on a C18 column (4.6 mm × 150 mm, 5 μm). HA and HHL were detected by absorbance at 228 nm. The column was eluted at a flow rate of 0.8 mL/min using a mobile phase composed of (A) 0.05% TFA in water and (B) 0.05% TFA in acetonitrile. The elution was carried out using a gradient of 10%–60% B in the first 10 min followed by 60%–10% B in the next 2 min. HA was quantified by integration of peak areas (A). Percent ACE inhibition was calculated according to the following equation: [drawing 1] (1)
The ACE inhibitory peptides identified by nano-LC MS/MS were synthesized using the solid phase method and purified by HPLC by GenScript Corporation (Nanjing, China). The ACE inhibitory activity of these chemically synthesized peptides was determined as described in Section 3.3.

| Compound | IC50 |
| --- | --- |
| MPFLFK [MPFLFK] | 92.4 µM |
| VFKAF [VFKAF] | 100 µM |
| CC(C)C[C@H](N)C(=O)N[C@@H](CCCNC(=N)N)C(=O)O [LR] | 158 µM |
| VVCVPW [VVCVPW] | 4.07 µM and 4.1 µM |
| PLFPK [PLFPK] | 41.3 µM |
| LASPTM [LASPTM] | 59.8 µM |
| LLHSPP [LLHSPP] | 222 µM |
| NC(N)=NCCC[C@H](NC(=O)[C@@H](N)CCCN=C(N)N)C(=O)O [RR] (H-Arg-Arg-OH) | 482 µM |
| CC(C)C[C@H](N)C(=O)N[C@@H](Cc1ccccc1)C(=O)N[C@@H](CCCNC(=N)N)C(=O)O [LFR] (H-Leu-Phe-Arg-OH) | 31.8 µM |
| CC(C)C[C@H](N)C(=O)N[C@H](C(=O)N[C@@H](CCCCN)C(=O)N[C@@H](Cc1ccccc1)C(=O)O)C(C)C [LVKF] (H-LVKF-OH) | 24.6 µM |
| CC(C)C[C@H](NC(=O)[C@@H](N)CC(C)C)C(=O)N[C@@H](CCCNC(=N)N)C(=O)N[C@@H](Cc1c[nH]cn1)C(=O)O [LLRH] (H-LLRH-OH) | 308 µM |
| HFEAMR [HFEAMR] | 192 µM |
| LGALPF [LGALPF] | 2690 µM |
| CC(C)C[C@H](NC(=O)[C@H](C)NC(=O)[C@@H](N)CC(C)C)C(=O)N[C@@H](CCCNC(=N)N)C(=O)O [LALR] (H-LALR-OH) | 1270 µM |
| LLMPK [LLMPK] | 686 µM |
| CC(C)C[C@H](N)C(=O)N[C@@H](CCC(=O)O)C(=O)NCC(=O)N[C@@H](CCCNC(=N)N)C(=O)O [LEGR] (H-LEGR-OH) | 1090 µM |
| CC(C)C[C@H](NC(=O)[C@H](CC(C)C)NC(=O)[C@@H](N)CC(C)C)C(=O)N[C@@H](CCCNC(=N)N)C(=O)O [LLLR] (H-LLLR-OH) | 1000 µM |
| N=C(N)NCCC[C@H](NC(=O)[C@H](CCCCN)NC(=O)[C@@H](N)Cc1ccccc1)C(=O)O [FKR] (H-Phe-Lys-Arg-OH) | 77.9 µM |
| LYHVL [LYHVL] | 17.5 µM |
| LGECGGR [LGECGGR] | 233 µM |
| LFVAAP [LFVAAP] | 70.2 µM |
| CC(C)C[C@H](NC(=O)[C@H](CCCCN)NC(=O)[C@@H](N)CC(C)C)C(=O)N1CCC[C@H]1C(=O)O [LKLP] (H-LKLP-OH) | 367 µM |
| CC(C)[C@H](N)C(=O)N[C@@H](CCCCN)C(=O)N[C@@H](Cc1ccccc1)C(=O)O [VKF] (H-Val-Lys-Phe-OH) | 10.4 µM |
